Measured values: patent US20250388623A1, “PEPTIDE INHIBITOR AND USE THEREOF” (CHENGDU BRILLIANT INSPIRATION BIOTHERAPEUTICS CO., LTD, priority 2022, published 2025)
pIC50: −log10 of the molar value. Peptide text beside a SMILES is read from it.

Tests used:
[1] = tested on: active TGF-β; experiment: Active TGF-β level in lung tissue, bleomycin (BLM) mouse lung fibrosis model; format: in vivo; conditions: single intratracheal dose 3 mg/kg on Day 7, lung 24 h later, BLM model group = 100.00
Source text: This Example was to evaluate the inhibitory effect of polypeptides on active TGF-β level during the progression of fibrotic disease. In this Example, a mouse lung fibrosis model induced by bleomycin (BLM) was used. The BLM animal model offers advantages, including a close mimicry of the pathological features of the primary disease, ease of use, and good reproducibility. It is the most representative model for studying the mechanisms of fibrosis and is recommended for evaluating drug efficacy.
In this Example, 6 to 8-week-old male C57/6J mice weighing 18-20 g were used as subjects for the study. The experimental animals were randomized into groups, 8 animals in each group, and the expressions of pro-fibrotic factors were detected at the endpoint of the experiment (Day 8) in this model. In this example, an aerosol intratracheal metered dosing applicator (Yuyan, model YAN30012) was utilized for intratracheal administration during the modeling and drug delivery processes. The dosing was performed as follows (An Official American Thoracic Society Workshop Report: Use of Animal Models for the Preclinical Assessment of Potential Therapies for Pulmonary Fibrosis, Am J Respir Cell Mol Biol Vol 56, Iss 5, pp 667-679, May 2017): The experimental animals were anesthetized with aerosolized isoflurane (RWD, lot no. 22041701) using a small animal anesthesia machine (RWD, model R500IE). Animals in the appropriate anesthetic state were positioned supine with heads facing up and bodies tilted on an operating platform (tilted at approximately) 60°, secured by their incisors. The practitioner gently lifted the tongue with tissue forceps in the right hand, pushing it outward and upward to open the animal's lower jaw. Holding the laryngoscope (Yuyan, model SR310-RW) in the left hand, the practitioner slid its anterior leaf-shaped blade along the midline of the tongue into the oral cavity until reaching the glottis, gently pressing the body and root of the tongue upward. The needle of the drug applicator was then inserted through the mouth into the glottis alongside the laryngoscope, and 50 μL of liquid was quickly injected. On the day of modeling (Day 1), the experimental animals were randomly assigned to groups and administered a 0.7 USP/kg dose of bleomycin solution (HanHui Pharmaceutical, Batch No. 20080511) via the tracheal route to induce the model. On Day 7, each peptide-treated group received a single intratracheal dose of 50 μL peptide drug (at a dosage of 3 mg/kg), while the model group was given an equal volume of solvent (saline, Kelong, Batch No. L221062501) as a control. Twenty-four hours after drug administration, the animals were dissected to collect lung tissue, which was ground in liquid nitrogen to extract total protein from the lung tissue. The active TGF-β content in the lung tissue of mice from each group was measured using the TGF-β ELISA kit (BOSTER, catalog number EK0515). The ratio of active TGF-β content between the peptide-treated group and the model group was calculated to evaluate the effect of the peptide on active TGF-β level.

[2] = target: T1, binding of TSP-1 protein to CD36, a TSP-1 receptor protein (Homo sapiens, UniProt P07996); experiment: ELISA: blocking of CD36 binding to TSP-1 protein; conditions: for inhibition at 100 µM: 3 h, read-out: Blocking rate (Mean, %); for inhibition at 100 µM / Blocking rate (Mean, %): 100 μM polypeptide, 0.25 μg/mL Fc-tagged CD36, blocking of CD36 binding to TSP-1
T1 construct: purchased novoprotein (TSP-1); R&D Systems (Fc-tagged CD36) CU45 (TSP-1); 1955-CD-050 (CD36-Fc)
T1 sequence (P07996 19-1170): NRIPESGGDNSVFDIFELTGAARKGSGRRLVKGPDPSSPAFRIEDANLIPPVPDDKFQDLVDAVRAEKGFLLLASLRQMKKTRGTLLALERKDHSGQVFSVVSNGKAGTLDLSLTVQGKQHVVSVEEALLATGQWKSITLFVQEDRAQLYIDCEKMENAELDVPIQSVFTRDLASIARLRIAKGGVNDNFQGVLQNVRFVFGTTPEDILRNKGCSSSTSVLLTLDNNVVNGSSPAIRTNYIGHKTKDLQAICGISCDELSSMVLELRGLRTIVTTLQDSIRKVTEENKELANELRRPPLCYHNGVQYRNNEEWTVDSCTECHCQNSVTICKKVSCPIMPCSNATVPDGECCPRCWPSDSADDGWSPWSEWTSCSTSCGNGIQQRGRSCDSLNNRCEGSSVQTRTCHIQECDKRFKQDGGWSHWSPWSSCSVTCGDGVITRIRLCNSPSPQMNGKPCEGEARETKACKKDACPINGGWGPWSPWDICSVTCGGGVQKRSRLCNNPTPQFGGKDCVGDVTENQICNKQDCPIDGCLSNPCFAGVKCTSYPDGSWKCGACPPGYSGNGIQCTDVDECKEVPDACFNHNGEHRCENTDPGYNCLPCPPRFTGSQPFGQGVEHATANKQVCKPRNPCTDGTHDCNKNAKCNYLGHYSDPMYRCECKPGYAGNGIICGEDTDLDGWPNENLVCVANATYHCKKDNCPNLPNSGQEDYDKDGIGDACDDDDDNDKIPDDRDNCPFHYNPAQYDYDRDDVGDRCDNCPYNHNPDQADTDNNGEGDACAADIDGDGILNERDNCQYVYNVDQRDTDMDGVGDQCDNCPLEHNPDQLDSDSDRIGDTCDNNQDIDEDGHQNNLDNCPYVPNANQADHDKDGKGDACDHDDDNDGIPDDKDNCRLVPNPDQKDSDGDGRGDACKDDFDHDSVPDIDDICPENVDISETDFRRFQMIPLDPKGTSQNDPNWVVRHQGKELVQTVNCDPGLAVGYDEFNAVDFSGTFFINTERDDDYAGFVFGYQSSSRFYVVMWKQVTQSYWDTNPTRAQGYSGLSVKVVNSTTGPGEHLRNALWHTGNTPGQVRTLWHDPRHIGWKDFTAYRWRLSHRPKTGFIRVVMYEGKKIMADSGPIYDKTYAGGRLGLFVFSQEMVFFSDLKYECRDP
Method: ELISA assay was performed to detect the ability of the polypeptides to block the binding of TSP-1 protein to CD36, a TSP-1 receptor protein. TSP-1 protein (novoprotein, Catalog No. CU45) was diluted to 2 μg/mL using 100 mM carbonate buffer and added to sample wells (100 μL/well) of a 96-well ELISA plate (Thermo, Catalog No. 437111), and incubated overnight at 4° C.; after washing the plate twice using 1×PBST wash solution, 200 μL of 1.5% BSA (Sigma, Catalog No. B2064) was added to each well, and incubated at 37° C. for 2 h; after washing the plate 3 times using 1×PBST wash solution, the analytes were added (100 μL/well, 3 replicate wells; for the control group, 0.25 μg/mL of Fc-tagged CD36 protein (R&D Systems, Catalog No. 1955-CD-050); and for the polypeptide-treated groups, a mixture containing Fc-tagged CD36 protein and polypeptide at final concentrations of 0.25 μg/mL and 100 μM, respectively), and incubated at 37° C. for 3 h. After washing the plate 5 times using 1×PBST wash solution, a 1:500 dilution solution of FITC-labeled anti-Fc-tagged antibody (Beyotime, Catalog No. A0556) was added, and incubated for 1 h at 37° C.; after washing the plate 5 times using 1×PBST wash solution, a multifunctional ELISA instrument (TECAN, model: Infinite 200 Pro) was used to detect the intensity of FITC fluorescence signal in each sample well. The ability of the polypeptides to block CD36 binding to TSP-1 protein (Table 2-1) was assessed by calculating the ratio of the fluorescence signal from the polypeptide-treated groups to that of the control group, allowing for the determination of the blocking rate of the polypeptides in inhibiting CD36 binding to TSP-1 protein, i.e., (fluorescence signal of the control group-fluorescence signal of the polypeptide-treated group)/fluorescence signal of the control group×100%. Based on the blocking rate results obtained at the single concentration and on the polypeptide molecule properties, the preferred polypeptide molecules were assayed for concentration dependence (at 0 μM, 0.5 μM, 1 μM, 5 μM, 10 μM, and 100 μM), and IC50 values of the polypeptides for blocking CD36 binding to TSP-1 protein were determined to further assess the abilities of the preferred polypeptide molecules to block the binding of CD36 to TSP-1 (Table 2-2).

[3] = tested on: TSP-1-dependent TGF-β activation; experiment: TSP-1-dependent TGF-β activation in PMA-differentiated THP-1 cells with 293-TGFβ Res reporter cells; format: cell-based; conditions: 100 μM polypeptide, 24 h; ratio to negative control group (1.00)
Method: In this Example, the inhibitory effects of the polypeptides on TSP-1-dependent TGF-β activation were detected using a model based on a high TSP-1 expressing cell. In the assay, THP-1 cells (American Typical Culture Collection, ATCC, TIB-20) were induced by phorbol ester (Phorbol 12-myristate 13-acetate, PMA) (Sigma, Catalog No. P1585) and differentiated into macrophage-like cells with distinct macrophage expression profiles.
The experiment was performed as follows: THP-1 cells were inoculated in a 96-well plate, and treated with 300 nM PMA for differentiation and adherence to form macrophage-like cells. 100 μM polypeptide was added (For the negative control group, an equal volume of PBS (the solvent for the polypeptide) was added, while the positive control group received an equal concentration of the polypeptide shown in SEQ ID NO: 50.) The cells were treated for 24 hours, and then a 293 reporter cell strain, 293-TGFβ Res cell strain (novoprotein, Catalog No. XCC03-1), was added for detecting TGF-β activity, and co-cultivated for 24 hours. Bio-Lite Luciferase Assay lysate comprising fluorescent substrate (Vazyme, Catalog No. DD1201-01) was added, and the fluorescent intensity was detected using a multifunctional microplate reader (TECAN, model Infinite 200 Pro). The inhibitory effect of the polypeptide on TGF-β activation was assessed by calculating the ratio of the fluorescence signal from the polypeptide-treated groups to that of the negative control group.

[4] = tested on: P-Smad2/3; experiment: P-Smad2/3 content in lung tissue, BLM mouse fibrosis model; format: in vivo; conditions: single intratracheal dose 3 mg/kg on Day 7, lung 24 h later, BLM model group = 100.00
Source text: This example aimed to evaluate the inhibitory effect of polypeptides on the TGF-β downstream signaling pathway during fibrosis progression. TGF-β intracellular signaling relies on the phosphorylation events of Smad family proteins. The increase in Smad2/3 phosphorylation levels is an important indicator that signal transduction has occurred in the TGF-β signaling pathway.
In this example, 6- to 8-week-old male C57/6J mice weighing 18-20 g were used as subjects for the study. The experimental animals were randomized into groups, eight animals in each group. In this example, intratracheal administration was performed using an aerosol intratracheal metered dosing applicator during both the modeling and drug delivery processes, as described in Example 4. On the day of modeling (Day 1), the experimental animals were randomly assigned to groups and administered a 0.7 USP/kg dose of bleomycin solution (HanHui Pharmaceutical, Batch No. 20080511) via the tracheal route to induce the model. On Day 7, each peptide-treated group received a single intratracheal dose of peptide drug at a dosage of 3 mg/kg, while the BLM model group was given an equal volume of solvent (saline) as a control. Twenty-four hours after drug administration, the animals were dissected, and the lung tissues were collected and frozen in liquid nitrogen for future use. Total protein from the lung tissue was extracted after grinding the tissue in liquid nitrogen, and the total P-Smad2/3 content in the tissue was measured by using P-Smad2/3 ELISA kit (CST, Catalog No. 12001C). The ratio of the P-Smad2/3 content between the peptide-treated group and the model group was calculated to evaluate the effect of the peptide on TGFβ signaling.

| Compound | active TGF-β content in lung tissue, ratio to model group, Mean(%) [1] [%] | inhibition at 100 µM [2] [%] | Mean (relative fluorescence intensity) [3] | P-Smad2/3 content in lung tissue, ratio to model group, Mean(%) [4] [%] | active TGF-β content in lung tissue, ratio to model group, Mean(%) ([1]; 3 mg/kg) | P-Smad2/3 content in lung tissue, ratio to model group, Mean(%) ([4]; 3 mg/kg) | Blocking rate (Mean, %) [2] [%] | pIC50 ([2]; concentrations 0-100 μM) |
| --- | --- | --- | --- | --- | --- | --- | --- | --- |
| Ac-TQDAEDNTVSFLQ-NH2 [SEQ ID NO: 36, Ac-Thr-Gln-Asp-Ala-Glu-Asp-Asn-Thr-Val-Ser-Phe-Leu-Gln-NH2] | 77.42 | 23.1 | 0.83 | 79.00 | – | – | – | – |
| C[C@@H]1NC(=O)[C@H](CC(=O)O)NC(=O)[C@H](CCC(N)=O)NC(=O)[C@H]([C@@H](C)O)NC(=O)[C@H](CC(N)=O)NC(=O)[C@H](CC(=O)O)NC(=O)[C@H](CCC(=O)O)NC1=O [SEQ ID NO: 45, cyclo[Gln-Asp-Ala-Glu-Asp-Asn-Thr]] (cyclo(AEDNTQD)) | – | – | 0.52 | – | 81.10 | 82.42 | – | – |
| Ac-Thr-Gln-Asp-Ala-Glu-Asp-Asn-Thr-Val-Ser-Phe-NH2 (Ac-TQDAEDNTVSF-NH2) [SEQ ID NO: 27] | 89.89 | – | – | 88.69 | – | – | 25.53 | – |
| cyclo[Thr-Gln-Asp-Pro-Glu-Asp-Asn] (TQDPEDN; cyclic peptide; MISC_FEATURE - head-to-tail backbone cyclization) [SEQ ID NO: 41] | 74.12 | – | – | 81.44 | – | – | 28.65 | – |
| Ac-TQDAEDNTAS-NH2 [SEQ ID NO: 24, Ac-Thr-Gln-Asp-Ala-Glu-Asp-Asn-Thr-Ala-Ser-NH2] | 76.35 | 32.6 | 0.57 | 89.89 | – | – | – | 4.97 |
| Ac-Thr-Gln-Asp-Ala-Glu-Asp-Asn-Thr-Ala-Ser-Phe-NH2 (Ac-TQDAEDNTASF-NH2) [SEQ ID NO: 31] | 83.22 | – | – | 90.02 | – | – | 18.44 | – |
| Ac-TQDPEDN-NH2 [SEQ ID NO: 14, Ac-Thr-Gln-Asp-Pro-Glu-Asp-Asn-NH2] | 92.49 | 27.9 | 0.70 | 87.39 | – | – | – | – |
| Ac-Thr-Glu-Asp-Ala-Glu-Asp-Asn-NH2 (Ac-TEDAEDN-NH2) [SEQ ID NO: 09] | 72.26 | – | – | 89.41 | – | – | 15.87 | – |
| Ac-TQDPAEDN-NH2 [SEQ ID NO: 48, Ac-Thr-Gln-Asp-Pro-Ala-Glu-Asp-Asn-NH2] | 82.97 | 29.7 | – | 80.57 | – | – | – | – |
